For data set [1], the target named is human 5-HT2A (h5-HT2A) receptor (Homo sapiens (Human), UniProt P28223). The data set is described as follows: FLIPR assay, human 5-HT2A receptor under agonist mode. The data set is classed as cell-based. As to the method: I. Assessment of the Activated Effect of Compounds of Formula I Targeting on Human 5-HT2A (h5-HT2A) Receptor Under Agonist Mode
1. Culture the cells in cell culture medium (DMEM containing 10% FBS, 1× penicillin-streptomycin 300 μg/ml G418 and 100 μg/ml hygromycin B) at 37° C., 5% (v/v) CO2.
2. One day before the assays, detach the cell using TrypLE™ Express and count cells using cell counter.
3. Seed 20000 cells/well in 30 μl/well culture medium to a 384-well cell plate and incubate the cells overnight at 37° C., 5% (v/v) C02.
4. On the assay day, prepare 2× dye solution following the manual of the FLIPR® Calcium 6 Assay Kit: i. Dilute the dye with assay buffer (20 mM HEPES in 1×HBSS, PH7.4); ii. Add probenecid to the final concentration of 5 mM; iii. Vortex vigorously for 1-2 minutes.
5. Remove medium from cell plate by flicking the cell plate on towel papers.
6. Add 10 μl of assay buffer and 10 μl of 2× dye solution to each well of the cell plate.
7. Put the cell plate on plate shaker, agitate the plate at 600 rpm for 2 minutes. Incubate the plate at 37° C. for 2 hours followed by additional 15-minute incubation at 25° C.
8. Prepare 3× compound in assay buffer: a. Dilute reference compounds to required concentration with DMSO. Add the compounds to a 384-well compound plate; b. Perform serial dilutions; c. Add 10 mM test compounds to the compound plate, perform 3-fold serial dilutions. d. […] Add 20 μl/well assay buffer to the compound plate; f. Mix the plate on plate shaker for 2 mins;
i. The normalized fluorescence reading (RFU) is calculated as shown follow, while Fmax and Fmin stand for maximum and minimum of calcium signal during defined time window: RFU=Fmax−Fmin
ii. Calculate the percentage activation by using following equation: […]
iii. Calculate EC50 by fitting % activation against log of compound concentrations with Hill equation using XLfit.

For a further data set, the target named is human 5-HT2A receptor (Homo sapiens (Human), UniProt P28223). Nature of the data set: Radioligand binding assay ([3H]-ketanserin) on human 5-HT2A receptor. As to the method: i. Prepare the assay buffer following the table below;
ii. Preparation of 8 doses of reference and test compounds starting from 10 mM stock solution as requested by 5-fold serial dilutions with 100%;
iii. […] a. Add 50 μl/well of 0.5% (v/v) PEI to UniFilter-96 GF/B plates. Seal the plates and incubate at 4° C. for 3 hrs; b. After incubation, wash the plates 3 times with ice-cold wash buffer (50 mM Tris, pH7.4);
iv. Preparation of assay plates: a. Dilute cell membrane with assay buffer and add 330 μl/well to 96 round deep well plates to reach a concentration of 20 μg/well; b. Prepare 8 concentrations of reference or exemplary compounds of the application and add 110 μl/well to 96 round deep well plates; c. Dilute [3H]-ketanserin with assay buffer to 5 nM (5× final concentration) and add 110 μl/well to 96 round deep well plates.
v. Centrifuge the plate at 1000 rpm for 30 secs and then agitate at 600 rpm, R.T. for 5 min.
vi. Seal the plates and incubate the plate at 27° C. for 90 min.
vii. Stop the incubation by vacuum filtration onto GF/B filter plates followed by 4 times washing with ice-cold wash buffer (50 mM Tris, pH7.4).
ix. Seal the filter plates and add 40 μl/well of scintillation cocktail.
x. Read the plate by using a Microbeta2 microplate counter.
For reference and exemplary test compounds of the application, the results are expressed as % Inhibition, using the normalization equation: N=100−100×(U−C2)/(C1−C2), where U is the unknown value, C1 is the average of high controls, and C2 is the average of low controls. The IC50 is determined by fitting percentage of inhibition as a function of compound concentrations with Hill equation using XLfit.

Data set [2] is described as follows: Human liver microsomes stability with NADPH. As to the method:
(§1) The objective of this study was to estimate in vitro metabolic stability of 1-45 in pooled human and male mouse liver microsomes. The concentrations of exemplary compounds in reaction systems were evaluated by LC-MS/MS for estimating the stability in pooled human and male mouse liver microsomes. The in vitro intrinsic clearances of test compounds were determined as well.
(§2) A master solution in the “Incubation Plate” containing phosphate buffer, ultra-pure H2O, MgCl2 solution and liver microsomes was made according to Table --. The mixture was pre-warmed at 37° C. water bath for 5 minutes.
(§3) 40 μL of 10 mM NADPH solution was added to each well. The final concentration of NADPH was 1 mM. The negative control samples were prepared by replacing NADPH with 40 μL of ultra-pure H2O. Samples were prepared in duplicate. Negative controls were prepared in singlet.
(§4) The reaction was started with the addition of 4 μL of 200 μM test compounds or control compounds to each master solution to get the final concentration of 2 μM. This study was performed in duplicate.
(§5) Aliquots of 50 μL were taken from the reaction solution at 0, 15, 30, 45 and 60 minutes. The reaction solutions were stopped by the addition of 4 volumes of cold methanol with IS (100 nM alprazolam, 200 nM imipramine, 200 nM labetalol and 2 μM ketoprofen). Samples were centrifuged at 3,220 g for 40 minutes. Aliquot of 90 μL of the supernatant was mixed with 90 μL of ultra-pure H2O and then was used for LC-MS/MS analysis.
(§6) LC/MS analysis was performed for all samples from this study using a Shimadzu liquid chromatograph separation system equipped with degasser DGU-20A5R; solvent delivery unit LC-30AD; system controller SIL-30AC; column oven CTO-30A; CTC Analytics HTC PAL System. Mass spectrometric analysis was performed using an Triple Quad™ 5500 instrument.
(§7) All calculations were carried out using Microsoft Excel. Peak area ratios of test compound to internal standard (listed in the below table) were determined from extracted ion chromatograms.
(§8) All calculations were carried out using Microsoft Excel. Peak areas were determined from extracted ion chromatograms. The slope value, k, was determined by linear regression of the natural logarithm of the remaining percentage of the parent drug vs. incubation time curve.
(§9) Conversion of the in vitro t1/2 (min) into the in vitro intrinsic clearance (in vitro CLint, in μL/min/mg proteins) was done using the following equation (mean of duplicate determinations):
(§10) [formula] […] Results & Discussion

The nature of data set [3]: Mouse liver microsomes stability with NADPH. Here is the method: as §1, §2, §3, §4, §5, §6, §7, §8, §9, §10
Data set [4] in a line: Rat liver microsomes stability with NADPH.
For data set [5] the following is noted: cited from earlier work.

Molecules are shown by their SMILES. Where two headings read alike, the source gives them in different places. Some results are limits rather than exact numbers.

We go through five compounds from US11427604B2 (Mindset Pharma Inc., priority 2020, dated 2022).

`[2H]C([2H])([2H])N(C([2H])([2H])[2H])C([2H])([2H])C([2H])([2H])c1c[nH]c2cccc(OC)c12` [Compound I-44, 2-(4-methoxy-1H-indol-3-yl)-N,N-bis(methyl-d3)ethan-1-amine-1,1,2,2-d4]: the EC50 in data set [1] was under 1000 nM. The compound also registered an IC50 at human 5-HT2A receptor of under 500 nM.

For `[2H]C([2H])([2H])N(C([2H])([2H])[2H])C([2H])([2H])C([2H])([2H])c1c[nH]c2cccc(OP(=O)(O)O)c12` [Compound I-3, 3-(2-(bis(methyl-d3)amino)ethyl-1,1,2,2-d4)-1H-indol-4-yl dihydrogen phosphate], the EC50 in data set [1] lay within 1000 to 10000 nM. This compound had a 50% inhibitory concentration (IC50) at human 5-HT2A receptor of 500 to 5000 nM.

Take `CN(C)CCc1c[nH]c2cccc(O)c12` [Psilocin, 4-hydroxy-N,N-dimethyltryptamine, reference compound]: the “Remaining Percentage (%) after 60 min” value in data set [2] (Human, with NADPH, 2 μM) turned out to be 70.16%; in data set [3] (Mouse, with NADPH, 2 μM) it was 96.89%; in data set [4] (Rat, with NADPH, 2 μM), 62.68%. Moreover, the half-life at 2 μM in data set [2] (human, microsomes) was 1.96 h; in data set [3] (male, mouse, microsomes), 2.36 h; in data set [4] (rat, microsomes), 1.48 h. For the same compound, the microsomal CLint at 2 μM is 11.8 µL/min/mg in data set [2] (human, microsomes); 9.78 µL/min/mg in data set [3] (male, mouse, microsomes); 15.6 µL/min/mg in data set [4] (rat, microsomes).

As to `CN(C)CCc1c[nH]c2cccc(OP(=O)(O)O)c12` [psilocybin, 4-phosphoryloxy-N,N-dimethyltrypatmine], the results for the abstinence rate in data set [5] (12 months follow-up) and in data set [5] (six months follow-up) were 67% and 80%, respectively.

Compound `[2H]C([2H])([2H])N(C([2H])([2H])[2H])C([2H])([2H])C([2H])([2H])c1c[nH]c2cccc(F)c12` [Compound I-43, 2-(4-fluoro-1H-indol-3-yl)-N,N-bis(methyl-d3)ethan-1-amine-1,1,2,2-d4] displayed an EC50 in data set [1] of under 1000 nM. The IC50 on human 5-HT2A receptor was under 500 nM.
